In PMC3543868 (Cell reports, 2012):

Target: GroEL in complex with its cofactor GroES (Escherichia coli, UniProt P0A6F5)
Settings: with GroES (singly capped); no AlFx; labelled compound

Sequence of GroEL in complex with its cofactor GroES (P0A6F5 2-548): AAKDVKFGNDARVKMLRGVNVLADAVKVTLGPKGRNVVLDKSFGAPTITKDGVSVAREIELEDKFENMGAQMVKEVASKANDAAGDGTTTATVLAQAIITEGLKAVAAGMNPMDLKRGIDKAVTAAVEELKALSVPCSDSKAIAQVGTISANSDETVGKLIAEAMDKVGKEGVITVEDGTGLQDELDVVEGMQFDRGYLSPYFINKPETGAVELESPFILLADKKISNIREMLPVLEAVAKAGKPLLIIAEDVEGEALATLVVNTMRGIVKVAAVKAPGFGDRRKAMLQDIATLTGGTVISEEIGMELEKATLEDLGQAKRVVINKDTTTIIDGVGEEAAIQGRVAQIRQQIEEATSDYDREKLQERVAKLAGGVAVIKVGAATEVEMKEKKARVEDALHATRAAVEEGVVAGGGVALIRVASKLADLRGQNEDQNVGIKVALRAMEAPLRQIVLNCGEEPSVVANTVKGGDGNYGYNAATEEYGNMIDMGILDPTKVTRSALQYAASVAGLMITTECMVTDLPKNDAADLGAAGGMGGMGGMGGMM
Sequence of GroEL in complex with its cofactor GroES (P0A6F9 whole entry, further chain): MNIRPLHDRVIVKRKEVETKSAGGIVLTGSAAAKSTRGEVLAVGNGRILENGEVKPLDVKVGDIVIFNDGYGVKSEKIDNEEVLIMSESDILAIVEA

## Nc1ncnc2c1ncn2[C@@H]1O[C@H](COP(=O)(O)OP(=O)(O)OP(=O)(O)O)[C@@H](O)[C@H]1O [ATP]
  nucleotides per GroEL 14-mer: ~ 7 nucleotides per GroEL 14-mer
